Measurements from ChEMBL document CHEMBL4428063, “Novel Pyrimidine Toll-like Receptor 7 and 8 Dual Agonists to Treat Hepatitis B Virus” (J Med Chem, 2016).
Activity calls are given as the source filed them. No cut-off for these calls is given here.

Tests used:
[1] = target: T1, Toll-like receptor 7 (Homo sapiens) (UniProt Q9NYK1); experiment: Agonist activity at human TLR7 expressed in HEK293 cells measured after 6 hrs by NF-kappaB luciferase reporter gene assay; assay type: cell-based
T1 sequence (whole entry): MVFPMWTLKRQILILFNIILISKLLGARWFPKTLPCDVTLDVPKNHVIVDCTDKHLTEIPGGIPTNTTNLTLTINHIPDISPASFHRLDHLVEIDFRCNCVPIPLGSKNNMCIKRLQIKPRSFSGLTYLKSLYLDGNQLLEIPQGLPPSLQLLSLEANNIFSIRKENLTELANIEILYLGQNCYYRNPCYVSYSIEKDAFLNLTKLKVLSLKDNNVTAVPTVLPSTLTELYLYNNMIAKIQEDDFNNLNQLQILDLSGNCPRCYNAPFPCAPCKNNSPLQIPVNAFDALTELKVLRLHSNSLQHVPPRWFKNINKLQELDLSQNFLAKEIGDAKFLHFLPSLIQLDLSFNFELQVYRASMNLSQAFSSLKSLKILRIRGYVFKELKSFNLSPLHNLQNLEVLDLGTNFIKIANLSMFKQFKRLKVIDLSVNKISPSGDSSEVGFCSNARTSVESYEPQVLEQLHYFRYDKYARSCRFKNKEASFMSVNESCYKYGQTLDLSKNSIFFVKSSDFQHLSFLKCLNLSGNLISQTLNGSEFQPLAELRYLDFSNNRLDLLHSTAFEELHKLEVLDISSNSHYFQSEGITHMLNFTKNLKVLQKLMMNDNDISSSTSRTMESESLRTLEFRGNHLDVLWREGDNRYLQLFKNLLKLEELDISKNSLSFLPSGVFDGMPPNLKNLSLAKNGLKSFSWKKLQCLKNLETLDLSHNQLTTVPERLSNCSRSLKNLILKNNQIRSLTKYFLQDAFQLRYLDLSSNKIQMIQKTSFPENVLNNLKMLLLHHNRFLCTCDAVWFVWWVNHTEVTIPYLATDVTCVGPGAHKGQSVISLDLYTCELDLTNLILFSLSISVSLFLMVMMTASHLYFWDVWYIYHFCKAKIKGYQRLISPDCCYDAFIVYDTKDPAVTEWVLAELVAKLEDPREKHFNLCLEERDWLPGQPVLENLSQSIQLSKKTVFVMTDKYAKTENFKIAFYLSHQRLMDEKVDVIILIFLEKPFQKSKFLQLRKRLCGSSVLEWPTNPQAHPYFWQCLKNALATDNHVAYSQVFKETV

[2] = Fraction absorbed in Sprague-Dawley rat plasma at 10 mg/kg, po; assay type: ADME, organism-based; details: read-out: Fabs
[3] = Cmax in Sprague-Dawley rat liver at 10 mg/kg, po; assay type: ADME, organism-based; set-up: dose 10 mg/kg, route oral
[4] = Intrinsic clearance in cynomolgus monkey liver microsomes assessed per mg protein at 1 uM measured after 60 mins; assay type: ADME, Macaca fascicularis, Microsome; details: read-out: CLH
[5] = Intrinsic clearance in human liver microsomes assessed per mg protein at 1 uM measured after 60 mins; assay type: ADME, Microsome; details: read-out: CLH
[6] = Intrinsic clearance in C57Bl/6 mouse hepatocytes at 1 uM measured after 120 mins; assay type: ADME, cell-based, Hepatocyte; details: 2 h
[7] = Intrinsic clearance in human hepatocytes at 1 uM measured after 120 mins; assay type: ADME, cell-based, Hepatocyte; details: 2 h
[8] = Plasma concentration in C57Bl/6 mouse infected with HBV genotype D at 5 mg/kg, po dosed once per week for 8 weeks administered 6 weeks after viral infection and measured on day 42 post 1 hr of dosage; assay type: ADME, organism-based; details: in vivo
[9] = Plasma concentration in C57Bl/6 mouse infected with HBV genotype D at 5 mg/kg, po dosed once per week for 8 weeks and measured after 164 hrs after dosing prior to subsequent dosing; assay type: ADME, organism-based; details: in vivo
[10] = Cmax in cynomolgus monkey plasma at 3 mg/kg, administered through oral gavage measured after 24 hrs; assay type: ADME, organism-based, Macaca fascicularis; set-up: dose 3 mg/kg, route oral
[11] = Tmax in cynomolgus monkey plasma at 3 mg/kg, administered through oral gavage measured after 24 hrs; assay type: ADME, organism-based, Macaca fascicularis
[12] = AUC(0 to last) in cynomolgus monkey plasma at 3 mg/kg, administered through oral gavage measured after 24 hrs; assay type: ADME, organism-based, Macaca fascicularis; set-up: dose 3 mg/kg, time 0 - last, route oral
[13] = Oral bioavailability in cynomolgus monkey at 3 mg/kg, measured after 24 hrs; assay type: ADME, organism-based, Macaca fascicularis; details: in vivo
[14] = Cmax in cynomolgus monkey plasma at 9 mg/kg, administered through oral gavage measured after 24 hrs; assay type: ADME, organism-based, Macaca fascicularis; set-up: dose 9 mg/kg, route oral
[15] = AUC(0 to last) in cynomolgus monkey plasma at 9 mg/kg, administered through oral gavage measured after 24 hrs; assay type: ADME, organism-based, Macaca fascicularis; set-up: dose 9 mg/kg, route oral, time 0 - last
[16] = target: Toll-like receptor 4 (Homo sapiens) (UniProt O00206); experiment: Agonist activity at wild-type human TLR4 expressed in HEK293 cells up to 25 uM measured after 6 hrs by NF-kappaB luciferase reporter gene assay; assay type: cell-based
[17] = target: T2, Toll-like receptor 6 (Homo sapiens) (UniProt Q9Y2C9); experiment: Agonist activity at wild-type human TLR6 expressed in HEK293 cells up to 25 uM measured after 6 hrs by NF-kappaB luciferase reporter gene assay; assay type: cell-based
T2 sequence (whole entry): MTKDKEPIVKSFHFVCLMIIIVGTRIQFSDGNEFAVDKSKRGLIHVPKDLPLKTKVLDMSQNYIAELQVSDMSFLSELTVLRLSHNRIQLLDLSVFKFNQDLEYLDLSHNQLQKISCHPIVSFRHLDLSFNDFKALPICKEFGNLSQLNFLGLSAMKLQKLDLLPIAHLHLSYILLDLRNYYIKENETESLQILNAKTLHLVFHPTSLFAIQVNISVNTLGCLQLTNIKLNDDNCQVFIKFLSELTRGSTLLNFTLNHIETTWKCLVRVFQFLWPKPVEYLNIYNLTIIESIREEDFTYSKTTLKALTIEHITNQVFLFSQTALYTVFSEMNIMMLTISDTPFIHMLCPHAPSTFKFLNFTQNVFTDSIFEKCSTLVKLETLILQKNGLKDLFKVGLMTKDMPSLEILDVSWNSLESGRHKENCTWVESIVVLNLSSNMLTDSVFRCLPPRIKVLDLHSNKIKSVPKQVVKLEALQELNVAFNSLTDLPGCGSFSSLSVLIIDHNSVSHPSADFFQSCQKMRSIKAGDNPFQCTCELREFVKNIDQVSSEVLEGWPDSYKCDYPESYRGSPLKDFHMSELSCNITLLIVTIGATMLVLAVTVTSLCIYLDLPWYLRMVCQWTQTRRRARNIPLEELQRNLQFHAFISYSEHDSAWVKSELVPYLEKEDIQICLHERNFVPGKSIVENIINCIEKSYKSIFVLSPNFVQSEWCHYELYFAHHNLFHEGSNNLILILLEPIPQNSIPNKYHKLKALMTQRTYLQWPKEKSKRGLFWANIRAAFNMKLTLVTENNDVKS

Toll-like receptor 4 (Homo sapiens), sequence (O00206 whole entry): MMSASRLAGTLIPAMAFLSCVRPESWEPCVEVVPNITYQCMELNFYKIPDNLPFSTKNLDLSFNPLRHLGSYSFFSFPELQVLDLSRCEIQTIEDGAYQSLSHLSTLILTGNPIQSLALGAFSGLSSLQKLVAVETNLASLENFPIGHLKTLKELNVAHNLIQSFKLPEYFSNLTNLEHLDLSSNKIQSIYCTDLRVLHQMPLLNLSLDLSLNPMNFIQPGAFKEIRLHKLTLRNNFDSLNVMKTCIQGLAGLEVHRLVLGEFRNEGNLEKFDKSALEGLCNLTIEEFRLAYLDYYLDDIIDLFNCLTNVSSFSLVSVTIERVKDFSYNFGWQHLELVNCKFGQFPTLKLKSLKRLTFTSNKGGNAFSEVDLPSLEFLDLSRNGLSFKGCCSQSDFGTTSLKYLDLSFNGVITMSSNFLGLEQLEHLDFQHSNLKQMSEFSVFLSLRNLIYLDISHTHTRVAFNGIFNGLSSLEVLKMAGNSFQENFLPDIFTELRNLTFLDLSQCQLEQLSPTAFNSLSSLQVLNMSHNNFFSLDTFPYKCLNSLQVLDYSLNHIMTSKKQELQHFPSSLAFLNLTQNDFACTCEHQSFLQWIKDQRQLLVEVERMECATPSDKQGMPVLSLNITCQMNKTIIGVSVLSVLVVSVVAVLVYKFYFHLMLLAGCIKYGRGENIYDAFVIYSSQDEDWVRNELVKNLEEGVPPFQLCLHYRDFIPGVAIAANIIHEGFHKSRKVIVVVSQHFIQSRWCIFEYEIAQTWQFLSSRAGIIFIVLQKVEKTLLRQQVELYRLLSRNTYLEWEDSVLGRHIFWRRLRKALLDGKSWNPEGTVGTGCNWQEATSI

- LED [1]: 1.6 µM
- Fa [2]: 55%
- Cmax [3]: 1710 ng/g
- microsomal CLint at 1 µM [4]: 8 µL/min/mg
- microsomal CLint at 1 µM [5]: < 4 µL/min/mg
- CLH [6]: 20 µL/min
- CLH [7]: 18 µL/min
- Cp [8]: 245 ng/mL
- Drug uptake [9]: Not Active
- Cmax [10]: 7 ng/mL
- Tmax [11]: 1 h
- AUC(0-t) at 24 h [12]: 11 ng·h/mL
- bioavailability [13]: 0.8%
- Cmax [14]: 34 ng/mL
- AUC(0-t) at 24 h [15]: 72 ng·h/mL
- Activity [16]: inactive
- Activity [17]: inactive
SMILES: CCCC[C@@H](CCO)Nc1nc(N)ncc1OC
